Results on two substances are retold here after patent US20240174717A1, “AFFINITY AGENTS” (Avitide LLC, priority 2021, published 2024).

Bridges are numbered along the chain shown (N, C = ends). [ ]: non-standard residue; d: D form. (Peg)3 = 12-amino-4,7,10-trioxadodecanoic acid subunits; PEG3 = NCCOCCOCCOCCC(=O)O; code 4 = not defined here; Dap = NC[C@H](N)C(=O)O

A short description of data set [1]: Stability of affinity resin towards sodium hydroxide (static binding before and after treatment). Conditions: 0.1 M NaOH for 18 hours, then static binding experiment vs untreated resin. In kind it is physicochemical. On the procedure:
Resin comprising SEQ ID No: 43 was incubated with 0.1 M NaOH for 18 hours, washed and a static binding experiment was conducted as described in example 5.

In a further data set the test system is exosomes. The data set can be described thus: Filter plate static binding experiment: affinity capture of exosomes by resins. Conditions: ligand conjugated to A50 beads, load 1E10 particles/mL in PBST, 60 min. On the procedure: A filter plate binding experiment using Durapore Membrane.
Resins were prepared by conjugating ligands to A50 beads.

With “Ac-NYWR5VWFPHAQG2VSTA-(Peg)3K-Amide (Ac-NYWRDVWFPHAQG[Dap]VSTA[(Peg)3]K-NH2; lactam 5-14) [SEQ ID No. 43]”, the “stability of resin towards sodium hydroxide” value in data set [1] was “stable towards 0.1 M NaOH”. Besides, the “Ave Capture (%)” value was determined as 89% with exosomes (ligand density 7.4 mg/mL) and 98% with exosomes (ligand density 11.2 mg/mL).

“Ac-NYWR5VWFPHAQG4VSTA-(Peg)3K-Amide (Ac-NYWRDVWFPHAQG[code 4]VSTA[PEG3]K-NH2; lactam 5-14; not fully specified (some residues); printed as Ac-NYWR5VWFPHAQG4VSTA-(Peg)3K-Amide; reading uncertain) [SEQ ID No. 28]”: the “Ave Capture (%)” value in the data set on exosomes (ligand density 7.7 mg/mL) turned out to be 38%; in the data set on exosomes (ligand density 9.8 mg/mL) it was 97%.
